In patent publication US9446039B2, “Aminoheteroaryl compounds as MTH1 inhibitors” (CEMM—FORSCHUNGSZENTRUM FÜR MOLEKULARE MEDIZIN GMBH, priority 2012, dated 2016):

Tests used:
Assay type in all cases: binding
[1] = target: SW480 colon carcinoma cells lysate proteins (Homo sapiens, UniProt P23526); settings: PreyGene AHCY
[2] = target: T1, SW480 colon carcinoma cells lysate proteins (Homo sapiens, UniProt P35527); settings: PreyGene KRT9
T1 sequence (P35527 1-623): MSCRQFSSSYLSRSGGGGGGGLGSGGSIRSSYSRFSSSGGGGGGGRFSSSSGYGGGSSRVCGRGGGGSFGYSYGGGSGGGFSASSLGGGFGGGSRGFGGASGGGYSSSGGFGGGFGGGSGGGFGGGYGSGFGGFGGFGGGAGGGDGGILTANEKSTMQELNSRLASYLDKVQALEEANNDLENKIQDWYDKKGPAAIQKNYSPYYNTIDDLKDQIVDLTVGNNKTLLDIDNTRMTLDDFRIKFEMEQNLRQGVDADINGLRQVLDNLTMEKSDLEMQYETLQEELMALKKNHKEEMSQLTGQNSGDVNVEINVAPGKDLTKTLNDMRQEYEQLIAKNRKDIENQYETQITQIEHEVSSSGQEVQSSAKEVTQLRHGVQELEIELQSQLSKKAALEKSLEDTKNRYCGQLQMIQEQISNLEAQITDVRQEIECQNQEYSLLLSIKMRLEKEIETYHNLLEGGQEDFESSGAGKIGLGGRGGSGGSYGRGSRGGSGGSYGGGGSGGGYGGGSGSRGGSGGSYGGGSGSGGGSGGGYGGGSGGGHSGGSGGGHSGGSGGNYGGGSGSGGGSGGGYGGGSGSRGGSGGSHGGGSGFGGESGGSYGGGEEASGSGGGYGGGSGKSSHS

[3] = target: T2, SW480 colon carcinoma cells lysate proteins (Homo sapiens, UniProt P14174); settings: PreyGene MIF
T2 sequence (P14174 1-115): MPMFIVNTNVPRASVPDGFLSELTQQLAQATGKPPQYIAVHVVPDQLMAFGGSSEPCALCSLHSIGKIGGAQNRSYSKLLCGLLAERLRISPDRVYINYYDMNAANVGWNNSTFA

[4] = target: T3, SW480 colon carcinoma cells lysate proteins (Homo sapiens, UniProt P11169); settings: PreyGene SLC2A3
T3 sequence (P11169 1-496): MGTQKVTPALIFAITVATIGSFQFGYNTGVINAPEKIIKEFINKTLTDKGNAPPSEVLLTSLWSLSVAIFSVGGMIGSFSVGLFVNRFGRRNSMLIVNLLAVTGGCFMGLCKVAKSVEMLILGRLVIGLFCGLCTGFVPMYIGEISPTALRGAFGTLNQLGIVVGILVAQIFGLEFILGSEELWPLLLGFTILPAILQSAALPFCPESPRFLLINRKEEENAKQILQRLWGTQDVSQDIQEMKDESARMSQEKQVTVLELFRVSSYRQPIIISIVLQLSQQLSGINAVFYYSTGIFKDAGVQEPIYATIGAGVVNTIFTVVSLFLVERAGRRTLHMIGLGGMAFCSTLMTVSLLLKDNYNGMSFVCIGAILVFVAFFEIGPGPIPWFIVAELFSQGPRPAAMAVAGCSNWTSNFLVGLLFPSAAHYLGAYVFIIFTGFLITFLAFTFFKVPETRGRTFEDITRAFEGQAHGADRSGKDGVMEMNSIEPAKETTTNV

[5] = target: T4, SW480 colon carcinoma cells lysate proteins (Homo sapiens, UniProt Q9BRA2); settings: PreyGene TXNDC17
T4 sequence (Q9BRA2 1-123): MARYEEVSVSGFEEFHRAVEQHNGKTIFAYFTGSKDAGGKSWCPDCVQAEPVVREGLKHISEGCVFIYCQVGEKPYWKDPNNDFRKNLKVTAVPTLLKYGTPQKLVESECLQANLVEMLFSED

[6] = target: T5, SW480 colon carcinoma cells lysate proteins (Homo sapiens, UniProt P10599); settings: PreyGene TXN
T5 sequence (P10599 1-105): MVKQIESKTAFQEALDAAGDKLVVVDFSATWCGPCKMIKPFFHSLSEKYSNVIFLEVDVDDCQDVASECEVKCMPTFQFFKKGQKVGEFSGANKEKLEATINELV

[7] = target: SW480 colon carcinoma cells lysate proteins (Homo sapiens, UniProt P26038); settings: PreyGene MSN
Chain of SW480 colon carcinoma cells lysate proteins (Homo sapiens, UniProt P26038) (P26038 whole entry): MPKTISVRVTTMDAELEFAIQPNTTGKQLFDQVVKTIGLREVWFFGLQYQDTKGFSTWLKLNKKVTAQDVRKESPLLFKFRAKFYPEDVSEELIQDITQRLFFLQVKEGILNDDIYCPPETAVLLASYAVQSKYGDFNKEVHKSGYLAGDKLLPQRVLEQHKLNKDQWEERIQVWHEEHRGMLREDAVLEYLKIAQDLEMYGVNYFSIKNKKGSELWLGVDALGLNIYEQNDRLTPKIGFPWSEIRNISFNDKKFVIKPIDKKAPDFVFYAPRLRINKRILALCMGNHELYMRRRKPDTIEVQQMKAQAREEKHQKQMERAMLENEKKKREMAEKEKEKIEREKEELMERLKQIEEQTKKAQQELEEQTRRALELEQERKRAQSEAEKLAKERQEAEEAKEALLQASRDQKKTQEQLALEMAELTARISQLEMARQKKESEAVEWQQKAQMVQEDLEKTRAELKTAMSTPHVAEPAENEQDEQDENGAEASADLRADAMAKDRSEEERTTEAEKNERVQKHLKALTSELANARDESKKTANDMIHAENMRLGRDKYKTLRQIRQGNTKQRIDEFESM

Chain of SW480 colon carcinoma cells lysate proteins (Homo sapiens, UniProt P23526) (P23526 whole entry): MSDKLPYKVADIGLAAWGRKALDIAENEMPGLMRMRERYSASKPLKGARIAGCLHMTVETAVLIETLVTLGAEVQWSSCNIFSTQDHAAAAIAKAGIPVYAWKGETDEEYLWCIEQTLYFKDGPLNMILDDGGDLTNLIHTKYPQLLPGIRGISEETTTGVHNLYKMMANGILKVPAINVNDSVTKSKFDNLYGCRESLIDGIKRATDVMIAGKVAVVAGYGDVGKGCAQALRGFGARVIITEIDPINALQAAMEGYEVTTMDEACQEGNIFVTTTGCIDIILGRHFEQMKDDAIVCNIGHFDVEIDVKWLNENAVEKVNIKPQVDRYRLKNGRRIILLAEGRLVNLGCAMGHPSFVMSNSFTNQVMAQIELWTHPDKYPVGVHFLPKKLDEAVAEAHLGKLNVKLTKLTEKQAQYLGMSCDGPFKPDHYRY

C[C@H](Oc1cc(-c2cnn(C3CCNCC3)c2)cnc1N)c1c(Cl)ccc(F)c1Cl [(5)-crizotinib]
AvgP [1]: 0.4716 | SC.Exp. 1-1 [1]: 4 | SC.Exp. 1-2 [1]: 4 | SC.Exp. 2-1 [1]: 0 | SC.Exp. 2-2 [1]: 0 | Sum (SC.Exp.) [1]: 8 | AvgP [2]: 0.1979 | SC.Exp. 1-1 [2]: 18 | SC.Exp. 1-2 [2]: 15 | SC.Exp. 2-1 [2]: 4 | SC.Exp. 2-2 [2]: 6 | Sum (SC.Exp.) [2]: 43 | AvgP [3]: 0.3362 | SC.Exp. 1-1 [3]: 0 | SC.Exp. 1-2 [3]: 1 | SC.Exp. 2-1 [3]: 2 | SC.Exp. 2-2 [3]: 2 | Sum (SC.Exp.) [3]: 5 | AvgP [4]: 0.1834 | SC.Exp. 1-1 [4]: 3 | SC.Exp. 1-2 [4]: 0 | SC.Exp. 2-1 [4]: 0 | SC.Exp. 2-2 [4]: 0 | Sum (SC.Exp.) [4]: 3 | AvgP [5]: 0.1862 | SC.Exp. 1-1 [5]: 2 | SC.Exp. 1-2 [5]: 3 | SC.Exp. 2-1 [5]: 0 | SC.Exp. 2-2 [5]: 0 | Sum (SC.Exp.) [5]: 5 | AvgP [6]: 0.4587 | SC.Exp. 1-1 [6]: 4 | SC.Exp. 1-2 [6]: 5 | SC.Exp. 2-1 [6]: 2 | SC.Exp. 2-2 [6]: 1 | Sum (SC.Exp.) [6]: 12 | AvgP [7]: 0.2291 | SC.Exp. 1-1 [7]: 11 | SC.Exp. 1-2 [7]: 11 | SC.Exp. 2-1 [7]: 0 | SC.Exp. 2-2 [7]: 0 | Sum (SC.Exp.) [7]: 22
